Read-outs that look alike come from different tables or passages of the source.
Key:
A1 adenosine receptor = molecular target: T1, A1 adenosine receptor (Rattus norvegicus, UniProt P25099); assay: biochemical; conditions: rat whole brain membranes, 3H-CHA; Table II; read-out: Adenosine Receptor Binding Activity/IC50 (nM) A1
T1 sequence (P25099 1-326): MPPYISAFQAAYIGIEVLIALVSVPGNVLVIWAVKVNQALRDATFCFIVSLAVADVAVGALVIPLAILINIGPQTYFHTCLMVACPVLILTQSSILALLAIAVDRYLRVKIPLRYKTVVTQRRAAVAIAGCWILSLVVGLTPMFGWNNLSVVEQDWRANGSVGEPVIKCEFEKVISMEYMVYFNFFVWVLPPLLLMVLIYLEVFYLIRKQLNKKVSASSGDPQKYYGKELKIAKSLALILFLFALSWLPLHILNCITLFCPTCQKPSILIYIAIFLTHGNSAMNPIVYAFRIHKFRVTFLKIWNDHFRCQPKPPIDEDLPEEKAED
Description: Non-specific binding was assessed in the presence of 1 mM theophylline.
The assays were run in glass test tubes in duplicate at 25° C. Once the membranes were added, the tubes were vortexed and incubated at 25° C. for 60 minutes (A1 assay) or 90 minutes (A2 assay) on a rotary shaker. The assay tubes were vortexed halfway through the incubation and again near the end. The assays were terminated by rapid filtration through 2.4 cm GF/B filters using a Brandel Cell Harvestor. The test tubes were washed three times with cold 50 mM tris-HCl (pH 7.7 or 7.4), with filtration being completed within 15 seconds. The damp filter circles were placed in glass scintillation vials filled with 10 ml of Aquasol II (New England Nuclear). The vials were allowed to shake overnight on a rotary shaker and were placed into a liquid scintillation analyzer for two minute counts. IC50 values for receptor binding, i.e. the concentration at which a compound of the invention displaced the radiolabeled standard, were obtained using a curve-fitting computer program (RS/1, Bolt, Beranek and Newman, Boston, Mass.).

A2 adenosine receptor = A2 adenosine receptor (Rattus norvegicus, UniProt P30543); assay: biochemical; conditions: rat brain striatum membranes, 3H-CGS 21680; Table II; read-out: Adenosine Receptor Binding Activity/IC50 (nM) A2
A2 adenosine receptor, sequence (P30543 whole entry): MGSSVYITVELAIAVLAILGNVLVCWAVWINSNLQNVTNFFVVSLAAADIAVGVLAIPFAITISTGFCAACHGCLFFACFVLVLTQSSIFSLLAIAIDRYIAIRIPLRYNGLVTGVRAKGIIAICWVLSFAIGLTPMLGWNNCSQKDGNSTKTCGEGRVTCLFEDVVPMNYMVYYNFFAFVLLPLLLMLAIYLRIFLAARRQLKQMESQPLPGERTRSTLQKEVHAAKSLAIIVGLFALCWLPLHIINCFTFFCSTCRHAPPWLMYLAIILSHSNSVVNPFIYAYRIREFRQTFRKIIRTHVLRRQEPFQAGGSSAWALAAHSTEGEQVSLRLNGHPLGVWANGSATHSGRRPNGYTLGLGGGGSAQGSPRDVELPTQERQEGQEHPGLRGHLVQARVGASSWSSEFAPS

swine coronary arteries = assay: In vitro vasorelaxation in isolated swine coronary arteries (PGF2α-contracted rings); assay type: cell-based; conditions: Sus scrofa, Table II
Description: Swine coronary arteries were obtained from a local slaughter house, dissected carefully and cleaned of fat, blood and adhering tissue. Rings approximately 2-3 mm wide were cut and transferred to water-jacketed tissue baths (10 ml) filled with warm (37° C.), oxygenated (O2 /CO2 :95%/5%) Krebs-Henseleit buffer and mounted on L-shaped hooks between stainless steel rods and a force transducer. […] Rings were equilibrated for 90 minutes with frequent buffer changes at a resting tension of 5 g In order to assure optimal tension development, arterial rings were primed twice with 36 mM KCl and once with 10 μm. PGF2α, before being exposed to 3 μM PGF2α. […] Tension achieved with 3 μM PGF2α was considered .equivalent to 100%; all other values were expressed as a percentage of that maximum.

[1] = tested on: normotensive anesthetized rat; assay: In vivo mean arterial pressure and heart rate in normotensive anesthetized rat; conditions: iv
Description: Normotensive rats were anesthetized with sodium pentobarbital (50 mg/kg, j.p.) and placed on a heated surgical table. Cannulas were inserted into the femoral artery and […] to allow the measurement of arterial pressure and to facilitate the intravenous administration of test compounds. The animals was allowed to equilibrate for 10 minutes after surgery. Mean arterial pressure was continuously measured and recorded and heart rate was monitored using the arterial pressure pulse to trigger a cardiotachometer. After baseline parameters were established and recorded, increasing doses (1, 3, 10, 30, 100, 300 and 1000 μg/kg) of the compound of the invention to be tested were administered intravenously. Maximal changes in the cardiovascular parameters were observed after each dose of the adenosine agonist. Only one compound was administered per rat.

[2] = 50% reduction in tension, 3 μM PGF2α, read-out: Vasorelaxation in Swine Coronary Artery/IC50
[3] = dose lowering heart rate by 25%, read-out: Blood Press/Heart Rate Anesthetized Rat HR/ED25
[4] = dose lowering mean arterial pressure by 25%, read-out: Blood Press/Heart Rate Anesthetized Rat MAP/ED25

SMILES | IC50 (A1 adenosine receptor) [nM] | IC50 (A2 adenosine receptor) [nM] | EC50 (swine coronary arteries; [2]) [µM] | EC50 (swine coronary arteries; read-out: Vasorelaxation in Swine Coronary Artery/IC50 (μM), 50% reduction in tension, 3 μM PGF2α) [µM] | ED25 [1, 3] [µg/kg] | ED25 [1, 4] [µg/kg]
Cc1nc(CCNc2ncnc3c2ncn3[C@@H]2O[C@H](CO)[C@@H](O)[C@H]2O)cs1 [Example 14, N^6-[2-(2'-methyl-4'-thiazolyl)-ethyl]adenosine] | 79.4 | > 1000 | – | – | – | –
CC(C)(Cc1cccs1)Nc1ncnc2c1ncn2[C@@H]1O[C@H](CO)[C@@H](O)[C@H]1O [Example 17, N^6-[2-(1,1-dimethyl-2'-thiophenyl)ethyl]adenosine] | 67.6 | 5250 | 18.8 | – | – | –
C[C@H](Cc1cc2ccccc2s1)Nc1ncnc2c1ncn2[C@@H]1O[C@H](CO)[C@@H](O)[C@H]1O [Example 15, N^6-[(R)-1-methyl-2-(2'benzo-[b]-thiophenyl)ethyl]adenosine] | – | 1000 | – | 2.45 | 1.4 | 1.5
OC[C@H]1O[C@@H](n2cnc3c(NCc4nc(-c5ccccc5)cs4)ncnc32)[C@H](O)[C@@H]1O [Example 19] | 36 | 1000 | 0.75 | – | – | –
C[C@H](Cc1sccc1Cl)Nc1ncnc2c1ncn2[C@@H]1O[C@H](CO)[C@@H](O)[C@H]1O [Example 32, N^6-[1-methyl-2-(3-chlorothien-2-yl)ethyl]adenosine] | 0.049 | – | – | – | – | –
CCNC(=O)[C@H]1C[C@@H](n2cnc3c(N[C@H](C)Cc4ccc(Cl)s4)ncnc32)[C@@H]2OC(=O)O[C@@H]21 [Example 44, (2S)-2α,3α-dihydroxy-4β-[N6-[2-(5-chloro-2-thienyl)-(1R)-1-methylethyl]amino-9-adenyl]cyclopentane-1β-N-ethylcarboxamide-2,3-carbonate] | 55 | 331 | 0.316 | – | – | –
OC[C@H]1O[C@@H](n2cnc3c(NCCc4nccs4)ncnc32)[C@H](O)[C@@H]1O [Example 13, N^6-[2-(2'-thiazolyl)ethyl]-adenosine] | 41 | 191 | 0.24 | – | > 10 | 3
CCNC(=O)[C@H]1C[C@@H](n2cnc3c(N[C@H](C)Cc4ccc(Cl)s4)ccnc32)[C@H](O)[C@@H]1O [Example 36, [1S-[1α,2β,3β,4α(S*)]]-4-[7-[[2-(5-chloro-2-thienyl)-1-methylethyl]amino]-3 H-imidazo[4,5-b]pyridin-3-yl]-N-ethyl-2,3-dihydroxycyclopentanecarboxamide] | 8.8 | 43.4 | 0.493 | – | – | –
CCNC(=O)[C@H]1O[C@@H](n2cnc3c(NCCNc4nc5ccccc5s4)ncnc32)[C@H](O)[C@@H]1O [Example 23] | 0.32 | 891 | 4.4 | – | 7 | 6
CCNC(=O)[C@H]1C[C@@H](n2cnc3c(N[C@H](CC)Cc4sccc4Cl)ncnc32)[C@H](O)[C@@H]1O [Example 34] | 1.6 | 23 | 0.072 | – | – | –
Cc1csc(CNc2ncnc3c2ncn3[C@@H]2O[C@H](CO)[C@@H](O)[C@H]2O)n1 [Example 18, N^6-[2-(4'-methyl-2'-thiazolyl)-methyl]adenosine] | 166 | 52 | 0.46 | – | > 10 | 2
Cc1ncsc1CCNc1ncnc2c1ncn2[C@@H]1O[C@H](CO)[C@@H](O)[C@H]1O [Example 12, N^6-[2-(4'-methylthiazol-5'-yl)-ethyl]adenosine] | 23 | 224 | 0.5 | – | 17 | 4
CCOc1ccc2nc(SCCNc3ncnc4c3ncn4[C@@H]3O[C@H](CO)[C@@H](O)[C@H]3O)sc2c1 [Example 11] | 7.4 | > 1000 | – | – | – | –
CCNC(=O)[C@H]1C[C@@H](n2cnc3c(N[C@H](C)Cc4ccc(Cl)s4)ncnc32)[C@@H]2OC(C)(C)O[C@@H]21 [6(1), (-)-[2S-[2α,3α-dimethylmethylenedioxy-4-β-[N6-[2-(5-chloro-2-thienyl)-(1R)-1-methylethyl]amino]-9-adenyl]cyclopentane]-1-β-N-ethylcarboxamide] | > 1000 | > 1000 | 19.1 | – | – | –
